Source: patent US8592456B2 (4SC Discovery GmbH, priority 2011, dated 2013)
Where two headings read alike, the source gives them in different places.

System: PBMC (T cell proliferation)
Experiment: T cell proliferation assay, PHA-stimulated human PBMC (BrdU ELISA)
Format: cell-based
Conditions: 48 hours, BrdU
Description: Cell proliferation was analysed using the BrdU based cell proliferation ELISA from Roche (Mannheim, Germany) according to the manufacturer's instructions.
T Cell Proliferation Assay
Peripheral blood mononuclear cells (PBMC) from healthy human donors were isolated by centrifugation over Ficoll-Hypaque (Sigma-Aldrich, Germany) according to manufacturer's instructions. Purified PBMC were washed twice with PBS and resuspended in RPMI1640 culture medium supplemented with 10% dialyzed heat inactivated fetal calf serum, 1.5 mM L-glutamine, 100 U penicillin/ml, and […] (all from PAN Biotech, Aidenbach, Germany). For stimulation, PBMC were seeded at 1×10^5 cells/well, activated with 2 μg/ml phytohaemagglutinin (PHA, Sigma) and incubated with the test compound. After 48 hours proliferation was measured using the BrdU based cell proliferation ELISA from Roche (Mannheim, Germany) according to the manual.

[1] = human PBMC, 2 μg/ml PHA, read-out: D: IC50 (Tcell proliferation)
[2] = PHA-stimulated human PBMC, column D, activity classes 1-4, read-out: IC50 (Tcell proliferation)

Structure (SMILES)	IC50 [1] [nM]	IC50 [2] [nM]
COC(=O)c1c(-c2ccccc2)noc1-c1cnn(-c2cccc(F)c2)c1C(F)(F)F [Example 51, methyl 5-(1-(3-fluorophenyl)-5-(trifluoromethyl)-1H-pyrazol-4-yl)-3-phenylisoxazole-4-carboxylate]	1000 to 10000	
N#Cc1c(-c2c(F)cccc2Cl)noc1-c1cnn(-c2cccc(F)c2)c1C(F)(F)F [Example 120, 3-(2-chloro-6-fluorophenyl)-5-(1-(3-fluorophenyl)-5-(trifluoromethyl)-1H-pyrazol-4-yl)isoxazole-4-carbonitrile]	100 to 1000	
CCOC(=O)c1c(-c2c(F)cccc2Cl)noc1-c1cnn(-c2ccc(C#N)cc2)c1C(F)(F)F [Example B-40, ethyl 3-(2-chloro-6-fluorophenyl)-5-(1-(4-cyanophenyl)-5-(trifluoromethyl)-1H-pyrazol-4-yl)-isoxazole-4-carboxylate]	1000 to 10000	
CON(C)C(=O)c1c(-c2c(F)cccc2Cl)noc1-c1cnn(-c2ccccc2F)c1C(F)(F)F [Example B-53, 3-(2-chloro-6-fluorophenyl)-5-(1-(2-fluorophenyl)-5-(trifluoromethyl)-1H-pyrazol-4-yl)-N-methoxy-N-methylisoxazole-4-carboxamide]	100 to 1000	
Fc1cccc(Cl)c1-c1noc(-c2cnn(-c3cccnc3)c2C(F)(F)F)c1-c1cnco1 [IB-32, 3-(2-chloro-6-fluorophenyl)-4-(oxazol-5-yl)-5-(1-(pyridin-3-yl)-5-(trifluoromethyl)-1H-pyrazol-4-yl)isoxazole]		1000 to 10000
CNC(=O)c1c(-c2c(F)cccc2Cl)noc1-c1cnn(-c2ccccc2F)c1C(F)(F)F [Example 19, 3-(2-chloro-6-fluorophenyl)-5-(1-(2-fluorophenyl)-5-(trifluoromethyl)-1H-pyrazol-4-yl)-N-methylisoxazole-4-carboxamide]	1000 to 10000	
Fc1cccc(Cl)c1-c1noc(-c2cnn(-c3ccncc3)c2C(F)(F)F)c1-c1ccoc1 [IB-24, 3-(2-chloro-6-fluorophenyl)-4-(furan-3-yl)-5-(1-(pyridin-4-yl)-5-(trifluoromethyl)-1H-pyrazol-4-yl)isoxazole]		10 to 100
CCOC(=O)c1c(-c2onc(-c3c(F)cccc3Cl)c2C(=O)OC)cnn1-c1ccccc1 [Example 34, methyl 3-(2-chloro-6-fluorophenyl)-5-(5-(ethoxycarbonyl)-1-phenyl-1Hpyrazol-4-yl)isoxazole-4-carboxylate]	1000 to 10000	
CCOC(=O)c1c(-c2c(F)cccc2Cl)noc1-c1cnn(-c2cccc(NC(C)=O)c2)c1C(F)(F)F [Example B-70, ethyl 5-(1-(3-acetamidophenyl)-5-(trifluoromethyl)-1H-pyrazol-4-yl)-3-(2-chloro-6-fluorophenyl)isoxazole-4-carboxylate]	10 to 100	
COC(=O)c1c(-c2c(F)cccc2Cl)noc1-c1cnn(-c2c(Cl)cccc2Cl)c1C(F)(F)F [Example 70, methyl 3-(2-chloro-6-fluorophenyl)-5-(1-(2,6-dichlorophenyl)-5-(trifluoromethyl)-1H-pyrazol-4-yl)isoxazole-4-carboxylate]	100 to 1000	
CC(=O)Nc1cccc(-n2ncc(-c3onc(-c4c(F)cccc4Cl)c3C(=O)OC(C)C)c2C(F)(F)F)c1 [Example B-78, isopropyl 5-(1-(3-acetamidophenyl)-5-(trifluoromethyl)-1H-pyrazol-4-yl)-3-(2-chloro-6-fluorophenyl)isoxazole-4-carboxylate]	100 to 1000	
CNC(=O)c1c(-c2c(F)cccc2Cl)noc1-c1cnn(-c2ccccn2)c1C(F)(F)F [Example B-93, 3-(2-chloro-6-fluorophenyl)-N-methyl-5-(1-(pyridin-2-yl)-5-(trifluoromethyl)-1H-pyrazol-4-yl)isoxazole-4-carboxamide]	1000 to 10000	
COC(=O)c1c(-c2c(F)cccc2Cl)noc1-c1cnn(-c2cccc(Cl)c2Cl)c1C(F)(F)F [Example 4, methyl 3-(2-chloro-6-fluorophenyl)-5-(1-(2,3-dichlorophenyl)-5-(trifluoromethyl)-1H-pyrazol-4-yl)isoxazole-4-carboxylate]	1000 to 10000	
Fc1cccc(Cl)c1-c1noc(-c2cnn(-c3ccncc3)c2C(F)(F)F)c1Br [Example B-83, 4-bromo-3-(2-chloro-6-fluorophenyl)-5-(1-(pyridin-4-yl)-5-(trifluoromethyl)-1H-pyrazol-4-yl)isoxazole]	1000 to 10000	
Fc1cccc(Cl)c1-c1noc(-c2cnn(-c3ccccc3)c2C(F)(F)F)c1Br [Example 145, 4-bromo-3-(2-chloro-6-fluorophenyl)-5-(1-phenyl-5-(trifluoromethyl)-1H-pyrazol-4-yl)isoxazole]	10 to 100	
COC(=O)c1c(-c2ccc(Cl)cc2Cl)noc1-c1cnn(-c2cccc(Cl)c2)c1C(F)(F)F [Example B-76, methyl 5-(1-(3-chlorophenyl)-5-(trifluoromethyl)-1H-pyrazol-4-yl)-3-(2,4-dichlorophenyl)isoxazole-4-carboxylate]	100 to 1000	
Cc1nnc(-c2c(-c3c(F)cccc3Cl)noc2-c2cnn(-c3cccc(S(N)(=O)=O)c3)c2C(F)(F)F)s1 [IB-23, 3-(4-(3-(2-chloro-6-fluorophenyl)-4-(5-methyl-1,3,4-thiadiazol-2-yl)isoxazol-5-yl)-5-(trifluoromethyl)-1H-pyrazol-1-yl)benzenesulfonamide]		1000 to 10000
CCOC(=O)c1c(-c2c(F)cccc2Cl)noc1-c1cnn(-c2ccccc2Br)c1C(F)(F)F [Example B-72, ethyl 5-(1-(2-bromophenyl)-5-(trifluoromethyl)-1H-pyrazol-4-yl)-3-(2-chloro-6-fluorophenyl)isoxazole-4-carboxylate]	100 to 1000	
CCOC(=O)c1csc(-c2c(-c3c(F)cccc3Cl)noc2-c2cnn(-c3cccc(F)c3)c2C(F)(F)F)n1 [IB-1, ethyl 2-{3-(2-chloro-6-fluorophenyl)-5-[1-(3-fluorophenyl)-5-(trifluoromethyl)-1H-pyrazol-4-yl]isoxazol-4-yl}-1,3-thiazole-4-carboxylate]		100 to 1000
COC(=O)c1c(-c2c(F)cccc2Cl)noc1-c1cnn(-c2onc(-c3ccc(Cl)cc3)c2C(=O)OC)c1C(F)(F)F [Example 131, methyl 3-(2-chloro-6-fluorophenyl)-5-{[1-(4-methoxycarbonyl-3-(4-chlorophenyl)isoxazol-5-yl)-5-trifluoromethyl-1H-pyrazol-4-yl]}-isoxazole-4-carboxylate]	1000 to 10000	
O=C(c1c(-c2c(F)cccc2Cl)noc1-c1cnn(-c2ccccc2F)c1C(F)(F)F)N1CCCCC1 [Example 21, (3-(2-chloro-6-fluorophenyl)-5-(1-(2-fluorophenyl)-5-(trifluoromethyl)-1H-pyrazol-4-yl)isoxazol-4-yl)(piperidin-1-yl)methanone]	10 to 100	
COC(=O)c1c(-c2c(F)cccc2Cl)noc1-c1cnn(-c2cccc(N)c2)c1C(F)(F)F [Example B-92, methyl 5-(1-(3-aminophenyl)-5-trifluoromethyl)-1H-pyrazol-4-yl)-3-(2-chloro-6-fluorophenyl)isoxazole-4-carboxylate]	10 to 100	
Fc1cccc(Cl)c1-c1noc(-c2cnn(-c3ccccn3)c2C(F)(F)F)c1-c1nnco1 [IB-25, 2-(3-(2-chloro-6-fluorophenyl)-5-(1-(pyridin-2-yl)-5-(trifluoromethyl)-1H-pyrazol-4-yl)isoxazol-4-yl)-1,3,4-oxadiazole]		10 to 100
CON(C)C(=O)c1c(-c2c(F)cccc2Cl)noc1-c1cnn(-c2ccccc2Cl)c1C(F)(F)F [Example B-51, 3-(2-chloro-6-fluorophenyl)-5-(1-(2-chlorophenyl)-5-(trifluoromethyl)-1H-pyrazol-4-yl)-N-methoxy-N-methylisoxazole-4-carboxamide]	1000 to 10000	
CNC(=O)c1c(-c2c(F)cccc2Cl)noc1-c1cnn(-c2cccnc2)c1C(F)(F)F [Example B-55, 3-(2-chloro-6-fluorophenyl)-N-methyl-5-(1-(pyridin-3-yl)-5-(trifluoromethyl)-1H-pyrazol-4-yl)isoxazole-4-carboxamide]	1000 to 10000	
COC(=O)c1c(-c2ccccc2Cl)noc1-c1cnn(-c2cccc(Cl)c2)c1C(F)(F)F [Example B-71, methyl 3-(2-chlorophenyl)-5-(1-(3-chlorophenyl)-5-(trifluoromethyl)-1H-pyrazol-4-yl)isoxazole-4-carboxylate]	< 10	
CNC(=O)c1c(-c2c(F)cccc2Cl)noc1-c1cnn(-c2ccc(F)cc2)c1C(F)(F)F [Example 55, 3-(2-chloro-6-fluorophenyl)-5-(1-(4-fluorophenyl)-5-(trifluoromethyl)-1H-pyrazol-4-yl)-N-methylisoxazole-4-carboxamide]	100 to 1000	
Cc1nnc(-c2c(-c3c(F)cccc3Cl)noc2-c2cnn(-c3ccccc3F)c2C(F)(F)F)o1 [Example I-11, 2-(3-(2-chloro-6-fluorophenyl)-5-(1-(2-fluorophenyl)-5-(trifluoromethyl)-1H-pyrazol-4-yl)isoxazol-4-yl)-5-methyl-1,3,4-oxadiazole]		100 to 1000
CCOC(=O)c1c(-c2c(F)cccc2Cl)noc1-c1cnn(-c2ccccc2NC(C)=O)c1C(F)(F)F [Example B-1]	1000 to 10000	
COC(=O)c1c(-c2c(F)cccc2Cl)noc1-c1cnn(-c2c(F)c(F)cc(F)c2F)c1C(F)(F)F [Example 47, methyl 3-(2-chloro-6-fluorophenyl)-5-(1-(2,3,5,6-tetrafluorophenyl)-5-(trifluoromethyl)-1H-pyrazol-4-yl)isoxale-4-carboxylate]	100 to 1000	
